Test in all cases: In vitro MIC, broth dilution
Holding throughout (type): cell-based
For orientation: In broth dilution the organism is exposed to a series of concentrations in liquid medium.

The test system of one experiment is P. aeruginosa GC 2214. The note with it: Pseudomonas aeruginosa, GC2214; P. aeruginosa GC 2214; read-out: MIC.
Another experiment deals with E. coli GC 3226. As to conditions: Escherichia coli, GC3226; E. coli GC 3226; read-out: MIC.
In the next experiment the test system is M. morganii GC 4531. As to conditions: Morganella morganii, GC4531; M. morganii GC 4531; read-out: MIC.
A further experiment concerns E. coli GC 4559. As to conditions: Escherichia coli, GC4559; E. coli GC 4559; read-out: MIC.
A further experiment has as its system C. albicans GC 3066. As to conditions: Candida albicans, GC3066; C. albicans GC 3066; read-out: MIC.
The next experiment has as its system S. marcescens GC 4077. The note with it: Serratia marcescens, GC4077; S. marcescens GC 4077; read-out: MIC.
Another experiment relates to E. cloacae GC 3783. As to conditions: Enterobacter cloacae, GC3783; E. cloacae GC 3783; read-out: MIC.
For another experiment, the system named is E. coli GC 4560. The note with it: Escherichia coli, GC4560; E. coli GC 4560; read-out: MIC.
The next experiment relates to K. pneumoniae GC 4534. The note with it: Klebsiella pneumoniae, GC4534; K. pneumoniae GC 4534; read-out: MIC.
The next experiment relates to P. aeruginosa GC 4532. The note with it: Pseudomonas aeruginosa, GC4532; P. aeruginosa GC 4532; read-out: MIC.
The next experiment relates to E. faecalis GC 4555. The note with it: Enterococcus faecalis, GC4555; E. faecalis GC 4555; read-out: MIC. Summed up:
(§1)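 Organisms were inoculated at 5×10^5 CFU/ml into Mueller-Hinton II containing antibiotic at 64-0.06 μg/ml, then incubated 18 hours at 35° C in ambient air. The MIC was the lowest concentration that inhibited growth.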

The test system of a further experiment is CNS GC 4547. Summed up: as §1
A further experiment relates to E. faecalis GC 2242. As to conditions: Enterococcus faecalis, GC2242; E. faecalis GC 2242; read-out: MIC. Summed up:
as §1

Another experiment relates to CNS GC 4537. The procedure, abridged:
as §1

The test system of a further experiment is CNS GC 4538. Summed up:
as §1

The next experiment deals with S. aureus GC 2216. The note with it: Staphylococcus aureus, GC2216; S. aureus GC 2216; read-out: MIC. The procedure, abridged: as §1
The subject of a further experiment is S. aureus GC 4536. The note with it: Staphylococcus aureus, GC4536; S. aureus GC 4536; read-out: MIC. The procedure, abridged:
as §1

For a further experiment, the system named is E. faecalis GC 842. As to conditions: Enterococcus faecalis, GC842; E. faecalis GC 842; read-out: MIC. Summed up: as §1
A further experiment deals with S. aureus GC 1131. As to conditions: Staphylococcus aureus, GC1131; S. aureus GC 1131; read-out: MIC. The procedure, abridged: as §1
The next experiment has as its system E. coli GC 2203. The note with it: Escherichia coli, GC2203; E. coli GC 2203; read-out: MIC.

These results are taken from patent publication US6858591B2, “Antibiotic AA 896 analogs” (Wyeth Holdings Corporation, priority 2001, dated 2005).

For orientation: MIC means the least concentration at which growth counts as inhibited.

Values after ≈ are worked out from the molar mass of the structure shown. Where two headings read alike, the source gives them in different places. Some results are limits rather than exact numbers.

Consider `CCOC(=O)C(NCCCNC(=O)[C@@H](N)CC(C)C)[C@@H](OC(C)=O)[C@H]1O[C@@H](n2ccc(=O)[nH]c2=O)[C@H](OC(C)=O)[C@@H]1OC(C)=O` (stereo partly drawn) [Example 40, Ethyl (3R)-3-(acetyloxy)-2-[(3-{[(2S)-2-amino-4-methylpentanoyl]amino}propyl)amino]-3-[(2R,3R,4R,5R)-3,4-bis(acetyloxy)-5-(2,4-dioxo-3,4-dihydro-1(2H)-pyrimidinyl)tetrahydro-2-furanyl]propanoate], for which the MIC is 128 µg/mL (≈ 199 µM) in the experiment with P. aeruginosa GC 2214; over 128 µg/mL with E. coli GC 3226; over 128 µg/mL in the experiment on M. morganii GC 4531; over 128 µg/mL in the experiment with E. coli GC 4559; over 128 µg/mL in the experiment with C. albicans GC 3066; over 128 µg/mL in the experiment with S. marcescens GC 4077. Also, the MIC is over 128 µg/mL in the experiment on E. cloacae GC 3783; over 128 µg/mL with E. coli GC 4560; over 128 µg/mL with K. pneumoniae GC 4534; 128 µg/mL (≈ 199 µM) in the experiment on P. aeruginosa GC 4532; over 128 µg/mL in the experiment on E. faecalis GC 4555; over 128 µg/mL in the experiment on CNS GC 4547 (CNS GC 4547, read-out: MIC). Also, the MIC in the experiment with E. faecalis GC 2242 was 128 µg/mL (≈ 199 µM); with CNS GC 4537 (CNS GC 4537, read-out: MIC), over 128 µg/mL; in the experiment with CNS GC 4538 (CNS GC 4538, read-out: MIC) it was over 128 µg/mL; in the experiment on S. aureus GC 2216 it was over 128 µg/mL; in the experiment with S. aureus GC 4536 it was over 128 µg/mL; with E. faecalis GC 842 it was over 128 µg/mL. Also, the MIC with S. aureus GC 1131 and with E. coli GC 2203 was over 128 µg/mL in each case.

In the case of `CCOC(=O)C(NCCCNC(=O)[C@H](CC(C)C)NC(=O)[C@H](CCCNC(=N)N[N+](=O)O)NC(=O)N[C@H](C(=O)OCc1ccccc1)C(C)C)C(OC(C)=O)[C@H]1O[C@H](n2ccc(=O)[nH]c2=O)[C@H](OC(C)=O)[C@@H]1OC(C)=O` (stereo partly drawn) [Example 41, 19-Benzyl 5-ethyl (4R,12S,15S,19S)-4-[(2R,3R,4R,5S)-3,4-bis(acetyloxy)-5-(2,4-dioxo-3,4-dihydro-1(2H)-pyrimidinyl)tetrahydro-2-furanyl]-15-(3-{[(2,2-dioxido-2lambda˜1˜-diazanyl)(imino)methyl]amino}propyl)-12-isobutyl-20-methyl-2,11,14,17-tetraoxo-3-oxa-6,10,13,16,18-pentaazahenicosane-5,19-dicarboxylate], the MIC with P. aeruginosa GC 2214 was 128 µg/mL; in the experiment on E. coli GC 3226 it was over 128 µg/mL; in the experiment with M. morganii GC 4531, over 128 µg/mL; with E. coli GC 4559, over 128 µg/mL; in the experiment with C. albicans GC 3066, 128 µg/mL; with S. marcescens GC 4077 it was over 128 µg/mL. Besides, the MIC is over 128 µg/mL in the experiment with E. cloacae GC 3783; over 128 µg/mL with E. coli GC 4560; over 128 µg/mL in the experiment with K. pneumoniae GC 4534; 128 µg/mL with P. aeruginosa GC 4532; over 128 µg/mL in the experiment with E. faecalis GC 4555; over 128 µg/mL with CNS GC 4547. Besides, the MIC in the experiment with E. faecalis GC 2242 is 128 µg/mL; in the experiment on CNS GC 4537, over 128 µg/mL; in the experiment with CNS GC 4538 it was over 128 µg/mL; in the experiment on S. aureus GC 2216 it was over 128 µg/mL; in the experiment on S. aureus GC 4536, over 128 µg/mL; with E. faecalis GC 842, over 128 µg/mL. Besides, the MIC with S. aureus GC 1131 and in the experiment on E. coli GC 2203 was over 128 µg/mL throughout.
